# According to patent publication US5145848A, “Amino anthracenediones-bis platinum complexes, useful as antitumoral agents” (priority 1987, dated 1992):
# Columns and labels:
# [1] = test system: leukaemia P388; experiment: Antitumour activity against leukaemia P388 in rats CD2 F1, i.p. (Table I); type: in vivo; settings: for MST / T/C % / TOX: day 1; for LTS (60 days): day 1, 60 days
# Protocol: 10^5 leukaemic cells were injected at day 0 and the compounds were administered intraperitoneally the day after, defined as day 1 of the experiment.
# [2] = test system: leukaemia L1210/CDDP; experiment: Effect on leukaemia L1210/CDDP (cis-platinum resistant) in rats CD2 F1, i.p. (Table II); type: in vivo, rats CD2 Fl; settings: for MST / T/C %: day 1; for LTS (60 days): day 1, 60 days
# Protocol: ^a) 10^5 cell/rat injected i.p. at day
# Compounds were administered at day "1
# [3] = test system: K562 cells; experiment: In vitro growth inhibition of human erythroleukosis K562 (Table III); type: cell-based
# Protocol: (§1) Effect of BBR 1939 on in vitro growth^b) of murine leukaemia^a)
# L1210/CDDP and human erythroleukosis
# K562 b - Comparison with CDDP:
# (§2) ^a) 10^5 cells were plated in triplicate at time
# (§3) ^b) means used: RPMI 1640 + 10 Y FCS (inactivated in warm) +
# (§4) 2mercaptoethanol 10^-3 M
# (§5) ^c) IC %: inhibition percentage of cellular growth (treated animals
# [4] = test system: human tumors; settings: cited from earlier work
# [5] = test system: L1210/CDDP cells; experiment: In vitro growth inhibition of murine leukaemia L1210/CDDP (Table III); type: cell-based
# Protocol: as §1, §2, §3, §4, §5
smiles,measurement,setting,value
O=C1c2c(O)ccc(O)c2C(=O)c2c(NCCNCCO)ccc(NCCNCCO)c21 [Mitoxanthrone],MST,[1]; 3.75 mg/Kg,32.5 days
same,T/C %,[1]; 3.75 mg/Kg,295%
same,TOX,[1]; 3.75 mg/Kg,0/7
same,LTS (60 days),[1]; 3.75 mg/Kg,2/7
same,MST,[1]; 11.1 mg/Kg,36.5 days
same,T/C %,[1]; 11.1 mg/Kg,331%
same,TOX,[1]; 11.1 mg/Kg,0/7
same,LTS (60 days),[1]; 11.1 mg/Kg,1/7
same,MST,[1]; 18.4 mg/Kg,42.5 days
same,T/C %,[1]; 18.4 mg/Kg,386%
same,TOX,[1]; 18.4 mg/Kg,0/7
same,LTS (60 days),[1]; 18.4 mg/Kg,1/7
same,MST,[1]; 25.8 mg/Kg,40.5 days
same,T/C %,[1]; 25.8 mg/Kg,368%
same,TOX,[1]; 25.8 mg/Kg,1/7
same,LTS (60 days),[1]; 25.8 mg/Kg,0/7
"N.N.[Cl][Pt][Cl] [cis-platinum, cis-diaminodichloroplatinum II]",MST,[2]; 5 mg/Kg,11.1 days
same,T/C %,[2]; 5 mg/Kg,97%
same,LTS (60 days),[2]; 5 mg/Kg,0/10
same,MST,[2]; 7.5 mg/Kg,11.6 days
same,T/C %,[2]; 7.5 mg/Kg,101%
same,LTS (60 days),[2]; 7.5 mg/Kg,0/10
same,MST,[2]; 12.5 mg/Kg,9.3 days
same,T/C %,[2]; 12.5 mg/Kg,103%
same,LTS (60 days),[2]; 12.5 mg/Kg,0/10
same,IC % (inhibition percentage of cellular growth),"[3]; 1 ug/ml, after 24 hours",22%
same,IC % (inhibition percentage of cellular growth),"[3]; 1 ug/ml, after 48 hours",52%
same,IC % (inhibition percentage of cellular growth),"[3]; 1 ug/ml, after 72 hours",54%
same,IC % (inhibition percentage of cellular growth),"[3]; 5 ug/ml, after 24 hours",28%
same,IC % (inhibition percentage of cellular growth),"[3]; 5 ug/ml, after 48 hours",71%
same,IC % (inhibition percentage of cellular growth),"[3]; 5 ug/ml, after 72 hours",82%
same,IC % (inhibition percentage of cellular growth),"[3]; 10 ug/ml, after 24 hours",35%
same,IC % (inhibition percentage of cellular growth),"[3]; 10 ug/ml, after 48 hours",76%
same,IC % (inhibition percentage of cellular growth),"[3]; 10 ug/ml, after 72 hours",87%
same,IC % (inhibition percentage of cellular growth),"[3]; 50 ug/ml, after 24 hours",52%
same,IC % (inhibition percentage of cellular growth),"[3]; 50 ug/ml, after 48 hours",85%
same,IC % (inhibition percentage of cellular growth),"[3]; 50 ug/ml, after 72 hours",91%
same,IC % (inhibition percentage of cellular growth),"[3]; 100 ug/ml, after 24 hours",56%
same,IC % (inhibition percentage of cellular growth),"[3]; 100 ug/ml, after 48 hours",85%
same,IC % (inhibition percentage of cellular growth),"[3]; 100 ug/ml, after 72 hours",91%
same,clinical efficacy,[4]; clinical observation,Clinical observation confirms the efficacy of the compound in a number of human tumors
same,side effects,[4]; clinical,"serious gastro-intestinal, renal side effects, hematologic and neurologic complications (ototoxicity)"
same,IC % (inhibition percentage of cellular growth),"[5]; 0.5 ug/ml, after 24 hours",20%
same,IC % (inhibition percentage of cellular growth),"[5]; 0.5 ug/ml, after 48 hours",8%
same,IC % (inhibition percentage of cellular growth),"[5]; 0.5 ug/ml, after 72 hours",37%
same,IC % (inhibition percentage of cellular growth),"[5]; 1 ug/ml, after 24 hours",30%
same,IC % (inhibition percentage of cellular growth),"[5]; 1 ug/ml, after 48 hours",18%
same,IC % (inhibition percentage of cellular growth),"[5]; 1 ug/ml, after 72 hours",44%
same,IC % (inhibition percentage of cellular growth),"[5]; 5 ug/ml, after 24 hours",54%
same,IC % (inhibition percentage of cellular growth),"[5]; 5 ug/ml, after 48 hours",87%
same,IC % (inhibition percentage of cellular growth),"[5]; 5 ug/ml, after 72 hours",84%
same,IC % (inhibition percentage of cellular growth),"[5]; 10 ug/ml, after 24 hours",78%
same,IC % (inhibition percentage of cellular growth),"[5]; 10 ug/ml, after 48 hours",92%
same,IC % (inhibition percentage of cellular growth),"[5]; 10 ug/ml, after 72 hours",86%
same,IC % (inhibition percentage of cellular growth),"[5]; 50 ug/ml, after 24 hours",80%
same,IC % (inhibition percentage of cellular growth),"[5]; 50 ug/ml, after 48 hours",99%
same,IC % (inhibition percentage of cellular growth),"[5]; 50 ug/ml, after 72 hours",100%
same,MST,[1]; 6 mg/Kg,22.5 days
same,T/C %,[1]; 6 mg/Kg,198%
same,LTS (60 days),[1]; 6 mg/Kg,0/7
same,MST,[1]; 10 mg/Kg,18.8 days
same,T/C %,[1]; 10 mg/Kg,162%
same,LTS (60 days),[1]; 10 mg/Kg,0/7
same,MST,[1]; 14 mg/Kg,11.5 days
same,T/C %,[1]; 14 mg/Kg,99%
same,LTS (60 days),[1]; 14 mg/Kg,0/7
